From patent US12662462B2, “Salts of pyridinylmethylenepiperidine derivatives and uses thereof” (SUNSHINE LAKE PHARMA CO., LTD., priority 2020, dated 2026)
Where two headings read alike, the source gives them in different places.

Key:
[1] = Solubility experiment in water; assay type: physicochemical
Procedure: The solubility of the present invention was determined using an Agilent 1200 High Performance Liquid Chromatograph DAD/VWD detector with an Agilent XDB-C18 model (4.6×50 mm, 5 μm). Detection wavelength was 266 nm, flow rate was 1.0 mL/min, the column temperature was 35° C., mobile phase A: acetonitrile: 0.01 M ammonium acetate=10:90 (V:V), analysis methods: acetonitrile: mobile phase A=70:30 (V:V), running time was 10 minutes.
The test sample was taken into 37° C. organic ultrapure water to prepare a supersaturated solution. After shaking for 24 h, the mixture was filtered with an aqueous filter membrane to obtain the filtrate. The solubility of the test sample in water was detected by HPLC.

[2] = Pharmacokinetic experiment in Beagle dogs; assay type: in vivo, Beagle dog; conditions: oral capsules, 5 mg/kg
Procedure: The inventors conducted a pharmacokinetic evaluation of the salt or its crystal form of the present invention in Beagle dogs.
The test sample (i.e., the salt or crystal form of the present invention, or the compound having formula (I) of the present invention) was filled into capsules for oral administration. The animals were fasted for 12 h before the administration, and they had free drinking water. Capsules containing test samples were administered orally at a dose of 5 mg/kg. After administration, intravenous blood was collected at the following time points (about 0.15 mL of blood taken): 0.25, 0.5, 1.0, 2.0, 4.0, 6.0, 8.0 and 24 h. EDTA-K2 was added as an anticoagulant in the blood collection tube in advance, the blood sample was centrifuged at 12,000 rpm for 2 minutes, the plasma was collected, and stored at −20° C. or −70° C.
After processing the plasma samples collected above (after the frozen plasma was thawed at room temperature, it was whirled for 5 minutes to mix well, then 20 μL of plasma was taken, 120 μL of acetonitrile solution containing internal standard was added, the mixture was whirled for 5 minutes to mix well, and centrifuged at 4,000 rpm for 5 minutes, then 100 μL of the supernatant was taken, 130 μL of methanol-water (V/V=1/1) was added to mix well), a standard curve with a suitable range was established according to the concentration of the test sample, and the LC-MS/MS with AB SCIEX API5500 was used, the concentration of the test sample in the plasma sample was determined in the MRM mode, and quantitative analysis was performed. Pharmacokinetic parameters were calculated according to drug concentration-time curve using a non-compartmental method by WinNonLin 6.3 software.

[3] = Stability experiment (high temperature, high humidity, light); assay type: physicochemical
Procedure: (§1) (1) High temperature experiment: an appropriate amount of a batch of test samples were taken into flat weighing bottles, and spread into a thin layer ≥5 mm thick. The above weighing bottles were placed in a constant temperature box at 40° C.±2° C./75%±5% RH and/or 60° C.±2° C./75%±5% RH for 30 days, the samples were taken on the 5th, 10th, and 30th days, and tested according to the key stability inspection items: the color changes of the samples were observed, the purities of the samples were checked by HPLC, and the structure of the samples were analyzed by X-ray powder diffraction.
as §1, with “(2)” for “(1)”, “humidity” for “temperature”, “placed” for “placed in a constant temperature box”, “25° C.,” for “40° C.±2° C./75%±5%”, “75%±5% or RH 90%±5%” for “and/or 60° C.±2° C./75%±5%”, “structures” for “structure”
as §1, with “(3) Light” for “(1) High temperature”, “placed and opened” for “placed”, “light” for “constant temperature”, “box (with UV)” for “box”, “the illuminance 4500±500 lx, UV light ≤0.7 w·h/m^2” for “40° C.±2° C./75%±5% RH and/or 60° C.±2° C./75%±5% RH”, “structures” for “structure”

[4] = Hygroscopicity experiment; assay type: physicochemical; conditions: 25° C., saturated ammonium chloride solution desiccator, 24 hours
Procedure: 1) A dry stoppered glass weighing bottle (outer diameter of 50 mm, height of 15 mm) was taken the day before, and placed in a 25° C.±1° C. constant temperature desiccator (a saturated ammonium chloride solution was placed at the bottom), and the weighing bottle was weighed accurately (m1).
2) An appropriate amount of the test sample was taken, and spread flat in the above weighing bottle, the thickness of the test sample was generally about 1 mm, and the weighing bottle was weighed accurately (m2).
3) The weighing bottle was open and placed under the above constant temperature and humidity conditions with the bottle cap for 24 hours.
4) The bottle cap was covered on the weighing bottle, and weighed accurately (m3), and calculate: the percentage increase in weight %=(m3−m2)/(m2−m1)×100%

[5] = High humidity (25° C., RH 75% ± 5%), the 5th day
[6] = High humidity (25° C., RH 75% ± 5%), the 10th day
[7] = High humidity (25° C., RH 75% ± 5%), the 30th day
[8] = High humidity (25° C., RH 90% ± 5%), the 5th day
[9] = High humidity (25° C., RH 90% ± 5%), the 10th day
[10] = High humidity (25° C., RH 90% ± 5%), the 30th day
[11] = High temperature (40° C.), the 5th day
[12] = High temperature (40° C.), the 10th day
[13] = High temperature (40° C.), the 30th day
[14] = High temperature (60° C.), the 5th day
[15] = High temperature (60° C.), the 10th day
[16] = High temperature (60° C.), the 30th day

In the case of `CN1CCC(=C(F)c2cccc(NC(=O)c3c(F)cc(F)cc3F)n2)CC1` [Compound having formula (I), 2,4,6-trifluoro-N-(6-(fluoro(1-methylpiperidin-4-ylidene)methyl)pyridin-2-yl)benzamide], the “Water solubility (in words)” value [1] was “poor water solubility”, the solubility thermodynamic at 24 h ([1]; thermodynamic from solid, 37° C. water, shaking for 24 h, read-out: Concentration of compound having formula (I) in saturated aqueous solution) was 2590 µg/mL and the AUC(0-t) ([2]; dog, plasma) was 117 ng·h/mL. For the same compound, the Cmax ([2]; dog, plasma, read-out: Cmax) was 32.8 ng/mL and the Tmax ([2]; dog, plasma, read-out: Tmax) was 3.67 h.
In the case of `CN1CCC(=C(F)c2cccc(NC(=O)c3c(F)cc(F)cc3F)n2)CC1.CS(=O)(=O)O` [Example 1], the Appearance ([3]; 0 day) was “white”, the Purity ([3]; 0 day) was 99.66% and the Appearance [3, 5] was “white”. The Purity [3, 5] was 99.71%, the Appearance [3, 6] was “white” and the Purity [3, 6] was 99.74%. For the same compound, the Appearance [3, 7] was “white”, the Purity [3, 7] was 99.77% and the Appearance [3, 8] was “white”. The Purity [3, 8] was 99.68%, the Appearance [3, 9] was “white” and the Purity [3, 9] was 99.71%. The Appearance [3, 10] was “white”, the Purity [3, 10] was 99.72% and the Appearance [3, 11] was “white”. For the same compound, the Purity [3, 11] was 99.73%, the Appearance [3, 12] was “white” and the Purity [3, 12] was 99.72%. The Appearance [3, 13] was “white”, the Purity [3, 13] was 99.79% and the Appearance [3, 14] was “white”. For the same compound, the Purity [3, 14] was 99.72%, the Appearance [3, 15] was “white” and the Purity [3, 15] was 99.74%. For the same compound, the Appearance [3, 16] was “white”, the Purity [3, 16] was 99.8% and the Appearance ([3]; Light, the 5th day) was “white”. For the same compound, the Purity ([3]; Light, the 5th day) was 99.59%, the Appearance ([3]; Light, the 10th day) was “white” and the Purity ([3]; Light, the 10th day) was 99.43%. For the same compound, the Appearance ([3]; Light, the 30th day) was “white”, the Purity ([3]; Light, the 30th day) was 97.66% and the “Changes of appearance, purity and crystal form” value ([3]; high temperature, high humidity and light, 30 days) was “no obvious changes”. The Hygroscopic feature [4] was “no or almost no hygroscopicity”, the “Concentration of compound having formula (I) in saturated aqueous solution” value ([1]; 37° C. water, shaking for 24 h) was 300.88 mg/mL and the AUClast [2] was 238 ng·h/mL. The Cmax [2] was 99.9 ng/mL and the Tmax [2] was 0.667 h.
In the case of `CN1CCC(=C(F)c2cccc(NC(=O)c3c(F)cc(F)cc3F)n2)CC1.O=S(=O)(O)c1ccccc1` [Example 3], the “Concentration of compound having formula (I) in saturated aqueous solution” value ([1]; 37° C. water, shaking for 24 h) was 1.89 mg/mL.
